Experimental data as given in PubChem BioAssay AID1963858 (Molecular Pharmacology Branch, DTP, NCI, 2024).

Test system: HOP-62 multicell spheroids with HUVEC/MSC, viability
Experiment: Anticancer human tumor HOP-62 cell line growth inhibition [KRAS2];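 also: viability read after a week of compound exposure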;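 as to viability, T/C: 100% = DMSO vehicle-treated spheroids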
Details: for IC50: curve of first compound; for viability, T/C: stronger effect = lower value
Outline: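 KRAS-mutant tumor cells were grown as spheroids with HUVEC endothelial cells and human MSCs as stroma. Targeted agents were tested alone and with KRAS pathway inhibitors. Doses started at or near clinical Cmax, or 10 microM, descending half-log.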

[1] = second compound 0.1 µM, first compound 0.000316 µM
[2] = second compound 0.1 µM, first compound 0.001 µM
[3] = second compound 0.1 µM, first compound 0.00316 µM
[4] = second compound 0.1 µM, first compound 0.01 µM
[5] = second compound 0.1 µM, first compound 0.0316 µM
[6] = second compound 0.316 µM, first compound 0.000316 µM
[7] = second compound 0.316 µM, first compound 0.001 µM
[8] = second compound 0.316 µM, first compound 0.00316 µM
[9] = second compound 0.316 µM, first compound 0.01 µM
[10] = second compound 0.316 µM, first compound 0.0316 µM
[11] = second compound 1 µM, first compound 0.000316 µM
[12] = second compound 1 µM, first compound 0.001 µM
[13] = second compound 1 µM, first compound 0.00316 µM
[14] = second compound 1 µM, first compound 0.01 µM
[15] = second compound 1 µM, first compound 0.0316 µM
[16] = second compound 3.16 µM, first compound 0.000316 µM
[17] = second compound 3.16 µM, first compound 0.001 µM
[18] = second compound 3.16 µM, first compound 0.00316 µM
[19] = second compound 3.16 µM, first compound 0.01 µM
[20] = second compound 3.16 µM, first compound 0.0316 µM
[21] = second compound 10 µM, first compound 0.000316 µM
[22] = second compound 10 µM, first compound 0.001 µM
[23] = second compound 10 µM, first compound 0.00316 µM
[24] = second compound 10 µM, first compound 0.01 µM
[25] = second compound 10 µM, first compound 0.0316 µM
[26] = second compound 0.1 µM, first compound 0.1 µM
[27] = second compound 0.316 µM, first compound 0.1 µM
[28] = second compound 1 µM, first compound 0.1 µM
[29] = second compound 3.16 µM, first compound 0.1 µM
[30] = second compound 10 µM, first compound 0.1 µM

## CC(=O)Nc1cccc(-n2c(=O)n(C3CC3)c(=O)c3c(Nc4ccc(I)cc4F)n(C)c(=O)c(C)c32)c1 + COc1cc2nc(C)nc(NC(C)c3cc(N)cc(C(F)(F)F)c3)c2cc1OC1CCOC1
Second compound 0.1 µM
  IC50: 2.5 nM
Second compound 0.316 µM
  IC50: 3.01 nM
Second compound 1 µM
  IC50: 2.01 nM
Second compound 3.16 µM
  IC50: 0.494 nM
Second compound 10 µM
  IC50: < 0.1 nM
Second compound 0.1 µM, first compound 0.0001 µM
  viability, T/C: 111%
[1]
  viability, T/C: 79%
[2]
  viability, T/C: 77.8%
[3]
  viability, T/C: 42.5%
[4]
  viability, T/C: 25.5%
[5]
  viability, T/C: 23.8%
Second compound 0.316 µM, first compound 0.0001 µM
  viability, T/C: 85.2%
[6]
  viability, T/C: 91.4%
[7]
  viability, T/C: 79.9%
[8]
  viability, T/C: 49.2%
[9]
  viability, T/C: 24.9%
[10]
  viability, T/C: 24.5%
Second compound 1 µM, first compound 0.0001 µM
  viability, T/C: 84.1%
[11]
  viability, T/C: 75.8%
[12]
  viability, T/C: 75.5%
[13]
  viability, T/C: 33.6%
[14]
  viability, T/C: 24.9%
[15]
  viability, T/C: 25.2%
Second compound 3.16 µM, first compound 0.0001 µM
  viability, T/C: 58.1%
[16]
  viability, T/C: 50.5%
[17]
  viability, T/C: 45.8%
[18]
  viability, T/C: 29.2%
[19]
  viability, T/C: 21.9%
[20]
  viability, T/C: 22.7%
Second compound 10 µM, first compound 0.0001 µM
  viability, T/C: 39.6%
[21]
  viability, T/C: 33.7%
[22]
  viability, T/C: 31.4%
[23]
  viability, T/C: 27.8%
[24]
  viability, T/C: 25.3%
[25]
  viability, T/C: 22.1%

## CC(C)n1nc(-c2ccc3oc(N)nc3c2)c2c(N)ncnc21 + COc1cc2nc(C)nc(NC(C)c3cc(N)cc(C(F)(F)F)c3)c2cc1OC1CCOC1
Second compound 0.1 µM
  IC50: 3.27 nM
Second compound 0.316 µM
  IC50: 2.34 nM
Second compound 1 µM
  IC50: 1.8 nM
Second compound 3.16 µM
  IC50: < 0.316 nM
Second compound 10 µM
  IC50: < 0.316 nM
[1]
  viability, T/C: 103%
[2]
  viability, T/C: 77%
[3]
  viability, T/C: 50.4%
[4]
  viability, T/C: 32.2%
[5]
  viability, T/C: 18.1%
[26]
  viability, T/C: 15.5%
[6]
  viability, T/C: 82.5%
[7]
  viability, T/C: 64.2%
[8]
  viability, T/C: 46%
[9]
  viability, T/C: 26.9%
[10]
  viability, T/C: 21.4%
[27]
  viability, T/C: 13.8%
[11]
  viability, T/C: 86.7%
[12]
  viability, T/C: 67.1%
[13]
  viability, T/C: 32%
[14]
  viability, T/C: 23.9%
[15]
  viability, T/C: 16.5%
[28]
  viability, T/C: 11.3%
[16]
  viability, T/C: 47.8%
[17]
  viability, T/C: 42.4%
[18]
  viability, T/C: 25.2%
[19]
  viability, T/C: 17.3%
[20]
  viability, T/C: 11.8%
[29]
  viability, T/C: 8.61%
[21]
  viability, T/C: 37.7%
[22]
  viability, T/C: 30.7%
[23]
  viability, T/C: 20.9%
[24]
  viability, T/C: 14.8%
[25]
  viability, T/C: 10.9%
[30]
  viability, T/C: 8.71%

## CC1(C)CCC(CN2CCN(c3ccc(C(=O)NS(=O)(=O)c4ccc(NCC5CCOCC5)c([N+](=O)[O-])c4)c(Oc4cnc5[nH]ccc5c4)c3)CC2)=C(c2ccc(Cl)cc2)C1 + COc1cc2nc(C)nc(NC(C)c3cc(N)cc(C(F)(F)F)c3)c2cc1OC1CCOC1
Second compound 0.1 µM
  IC50: 4240 nM
Second compound 0.316 µM
  IC50: 4580 nM
Second compound 1 µM
  IC50: 3430 nM
Second compound 3.16 µM
  IC50: 1660 nM
Second compound 10 µM
  IC50: 370 nM
[5]
  viability, T/C: 84.1%
[26]
  viability, T/C: 92.3%
Second compound 0.1 µM, first compound 0.316 µM
  viability, T/C: 79.6%
Second compound 0.1 µM, first compound 1 µM
  viability, T/C: 82.6%
Second compound 0.1 µM, first compound 3.16 µM
  viability, T/C: 58%
Second compound 0.1 µM, first compound 10 µM
  viability, T/C: 26%
[10]
  viability, T/C: 87.5%
[27]
  viability, T/C: 88.7%
Second compound 0.316 µM, first compound 0.316 µM
  viability, T/C: 78.2%
Second compound 0.316 µM, first compound 1 µM
  viability, T/C: 75.3%
Second compound 0.316 µM, first compound 3.16 µM
  viability, T/C: 65%
Second compound 0.316 µM, first compound 10 µM
  viability, T/C: 23.2%
[15]
  viability, T/C: 85.1%
[28]
  viability, T/C: 88%
Second compound 1 µM, first compound 0.316 µM
  viability, T/C: 78.9%
Second compound 1 µM, first compound 1 µM
  viability, T/C: 64.6%
Second compound 1 µM, first compound 3.16 µM
  viability, T/C: 57.8%
Second compound 1 µM, first compound 10 µM
  viability, T/C: 14.5%
[20]
  viability, T/C: 78%
[29]
  viability, T/C: 75.6%
Second compound 3.16 µM, first compound 0.316 µM
  viability, T/C: 62.8%
Second compound 3.16 µM, first compound 1 µM
  viability, T/C: 62.2%
Second compound 3.16 µM, first compound 3.16 µM
  viability, T/C: 38.5%
Second compound 3.16 µM, first compound 10 µM
  viability, T/C: 26%
[25]
  viability, T/C: 55.6%
[30]
  viability, T/C: 56%
Second compound 10 µM, first compound 0.316 µM
  viability, T/C: 52.8%
Second compound 10 µM, first compound 1 µM
  viability, T/C: 39.5%
Second compound 10 µM, first compound 3.16 µM
  viability, T/C: 24%
Second compound 10 µM, first compound 10 µM
  viability, T/C: 7.27%
